From ChEMBL document CHEMBL1201862, “PubChem BioAssay data set” (2004)
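Values below derive from 48-hour exposures of cells grown in 96-well plates, with endpoints linearly interpolated between the two concentrations bracketing the appropriate inhibition level. GI50 marks 50% less growth.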 Calls of active or inactive are those of the source. Cut-off read from the data, not from the text of the source: active = GI50 up to about 1.1 µM and inactive = higher.

Key:
Assay in all cases: inhibition of tumour cell growth, NCI panel, 48 h
CAKI-1 = test system: CAKI-1
CCRF-CEM = test system: CCRF-CEM
EKVX = test system: EKVX
HCT-116 = test system: HCT-116
HL-60 = test system: HL-60
HOP-92 = test system: HOP-92
K562 = test system: K562
M14 = test system: M14
MCF7 = test system: MCF7
Malme-3M = test system: Malme-3M
NCI-H226 = test system: NCI-H226
OVCAR-4 = test system: OVCAR-4
SF-539 = test system: SF-539
SK-MEL-2 = test system: SK-MEL-2
SK-OV-3 = test system: SK-OV-3
SN12C = test system: SN12C
SNB-19 = test system: SNB-19
SW-620 = test system: SW-620
U-251 = test system: U-251
UO-31 = test system: UO-31

Row | SMILES | GI50 (CAKI-1) | GI50 (CCRF-CEM) | GI50 (EKVX) | GI50 (HCT-116) | GI50 (HL-60) | GI50 (HOP-92) | GI50 (K562) | GI50 (M14) | GI50 (MCF7) | GI50 (Malme-3M) | GI50 (NCI-H226) | GI50 (OVCAR-4) | GI50 (SF-539) | GI50 (SK-MEL-2) | GI50 (SK-OV-3) | GI50 (SN12C) | GI50 (SNB-19) | GI50 (SW-620) | GI50 (U-251) | GI50 (UO-31)
1 | COC(=O)c1oc([N+](=O)[O-])c(Cl)c1Cl | 2.44 µM (inactive) | 2.21 µM (inactive) | 19.8 µM (inactive) | 6.24 µM (inactive) | 1.34 µM (inactive) | 20 µM (inactive) | 2.56 µM (inactive) | 7.28 µM (inactive) | 2.04 µM (inactive) | 7.43 µM (inactive) | 21.3 µM (inactive) | 9.31 µM (inactive) | 6.01 µM (inactive) | 12.2 µM (inactive) | 19 µM (inactive) | 7.53 µM (inactive) | 18.7 µM (inactive) | 4.07 µM (inactive) | 8.11 µM (inactive) | 8.07 µM (inactive)
2 | COc1ccc(/C=C/C(=O)c2cc(C(C)(C)C)c(O)c(C(C)(C)C)c2)cc1OC | 10.7 µM (inactive) | 2.83 µM (inactive) | 11.2 µM (inactive) | 4.25 µM (inactive) | 2.84 µM (inactive) | 16.6 µM (inactive) | 3.12 µM (inactive) | 25.3 µM (inactive) | 4.29 µM (inactive) | 61.2 µM (inactive) | 10.7 µM (inactive) | 5.9 µM (inactive) | 12.7 µM (inactive) | 3.48 µM (inactive) | 18.7 µM (inactive) | 8.15 µM (inactive) | 24.8 µM (inactive) | 4.32 µM (inactive) | 5.79 µM (inactive) | 5.16 µM (inactive)
3 | CCOC(=O)CON=c1c2ccccc2ccc2ccccc12 | > 100 µM (inactive) | > 100 µM (inactive) | > 100 µM (inactive) | > 100 µM (inactive) | > 100 µM (inactive) | > 100 µM (inactive) | > 100 µM (inactive) | > 100 µM (inactive) | > 100 µM (inactive) | > 100 µM (inactive) | > 100 µM (inactive) | > 100 µM (inactive) | > 100 µM (inactive) | > 100 µM (inactive) | > 100 µM (inactive) | > 100 µM (inactive) | > 100 µM (inactive) | > 100 µM (inactive) | > 100 µM (inactive) | > 100 µM (inactive)
4 | CCOC(=O)CCC(NC(=O)c1ccc(OCc2nc3cc(C(F)(F)F)ccc3nc2-c2ccccc2)cc1)C(=O)OCC (stereo not drawn) | 74.8 µM (inactive) | 58.2 µM (inactive) | > 100 µM (inactive) | 52.2 µM (inactive) | > 100 µM (inactive) | 79.6 µM (inactive) | 46.6 µM (inactive) | 81.7 µM (inactive) | 5.37 µM (inactive) | 87.3 µM (inactive) | 13 µM (inactive) | 13.7 µM (inactive) | > 100 µM (inactive) | 22 µM (inactive) | > 100 µM (inactive) | > 100 µM (inactive) | > 100 µM (inactive) | > 100 µM (inactive) | > 100 µM (inactive) | 37.9 µM (inactive)
5 | Nn1c(-c2ccccc2)n[nH]c1=O | > 100 µM (inactive) | > 100 µM (inactive) | > 100 µM (inactive) | > 100 µM (inactive) | > 100 µM (inactive) | > 100 µM (inactive) | > 10 µM (inactive) | > 100 µM (inactive) | > 100 µM (inactive) | 80.2 µM (inactive) | > 100 µM (inactive) | > 100 µM (inactive) | > 100 µM (inactive) | > 100 µM (inactive) | > 100 µM (inactive) | > 100 µM (inactive) | > 100 µM (inactive) | > 100 µM (inactive) | > 100 µM (inactive) | > 100 µM (inactive)
6 | CC1CN(CCO)CC(C)O1 (stereo not drawn) | > 100 µM (inactive) | > 100 µM (inactive) | > 100 µM (inactive) | > 100 µM (inactive) | > 100 µM (inactive) | > 100 µM (inactive) | > 100 µM (inactive) | > 100 µM (inactive) | > 100 µM (inactive) | > 100 µM (inactive) | > 100 µM (inactive) | > 100 µM (inactive) | > 100 µM (inactive) | > 100 µM (inactive) | > 100 µM (inactive) | > 100 µM (inactive) | > 100 µM (inactive) | > 100 µM (inactive) | > 100 µM (inactive) | > 100 µM (inactive)
7 | COC(=O)C(=O)C(C(=O)OC)C(=O)C(=O)Nc1c(Cl)cc([N+](=O)[O-])cc1Cl (stereo not drawn) | > 100 µM (inactive) | > 10 µM (inactive) | 48.6 µM (inactive) | > 100 µM (inactive) | > 100 µM (inactive) | > 100 µM (inactive) | > 100 µM (inactive) | > 100 µM (inactive) | > 100 µM (inactive) | > 100 µM (inactive) | > 100 µM (inactive) | 80.9 µM (inactive) | > 100 µM (inactive) | > 100 µM (inactive) | > 100 µM (inactive) | > 100 µM (inactive) | > 100 µM (inactive) | > 100 µM (inactive) | 68.7 µM (inactive) | > 100 µM (inactive)
8 | C(/c1ccco1)=c1/nc(-c2ccccc2)n2c1nc1ccccc12 | 5.51 µM (inactive) | 16.6 µM (inactive) | 0.0107 µM (active) | 15.5 µM (inactive) | > 100 µM (inactive) | 38.1 µM (inactive) | 20.9 µM (inactive) | 22.6 µM (inactive) | 42.6 µM (inactive) | 16.4 µM (inactive) | 9.48 µM (inactive) | 20.5 µM (inactive) | 24.3 µM (inactive) | 28.2 µM (inactive) | 22.4 µM (inactive) | 37.4 µM (inactive) | > 100 µM (inactive) | 21.7 µM (inactive) | 40.6 µM (inactive) | 67 µM (inactive)
9 | CSC1(C(=O)O)C2CCC3C2CCC31 (stereo not drawn) | > 100 µM (inactive) | 52.6 µM (inactive) | > 100 µM (inactive) | > 100 µM (inactive) | 99.5 µM (inactive) | > 100 µM (inactive) | 73.3 µM (inactive) | > 100 µM (inactive) | > 100 µM (inactive) | > 100 µM (inactive) | > 100 µM (inactive) | > 100 µM (inactive) | > 100 µM (inactive) | > 100 µM (inactive) | > 100 µM (inactive) | > 100 µM (inactive) | > 100 µM (inactive) | > 100 µM (inactive) | > 100 µM (inactive) | > 100 µM (inactive)
10 | OCCOCn1cc(Cn2ncc3c(SCc4ccccc4)ncnc32)nn1 | 48.4 µM (inactive) | – | 38 µM (inactive) | 34.7 µM (inactive) | 13.7 µM (inactive) | 99.8 µM (inactive) | 20.4 µM (inactive) | 27.3 µM (inactive) | 43.6 µM (inactive) | 76.2 µM (inactive) | 62.8 µM (inactive) | 59.3 µM (inactive) | 39 µM (inactive) | 37.2 µM (inactive) | 61.5 µM (inactive) | 64.9 µM (inactive) | 85.7 µM (inactive) | 26.7 µM (inactive) | 44.1 µM (inactive) | 61.8 µM (inactive)
11 | [N-]=[N+]=Nc1c([N+](=O)[O-])c(=O)n2c3c(cccc13)CCC2 | 13.2 µM (inactive) | 1.97 µM (inactive) | 19.4 µM (inactive) | 15.6 µM (inactive) | 2.2 µM (inactive) | 14 µM (inactive) | 1.75 µM (inactive) | 10.8 µM (inactive) | 11 µM (inactive) | 1.62 µM (inactive) | 24.2 µM (inactive) | 13.7 µM (inactive) | 23.2 µM (inactive) | 16.6 µM (inactive) | > 100 µM (inactive) | 9.77 µM (inactive) | > 67.8 µM (inactive) | 3.9 µM (inactive) | 17.5 µM (inactive) | 15.2 µM (inactive)
12 | Cc1c2oc(=O)c(C#N)cc2c2ccccn12 | 62.8 µM (inactive) | > 100 µM (inactive) | > 100 µM (inactive) | 37.6 µM (inactive) | > 100 µM (inactive) | > 100 µM (inactive) | > 100 µM (inactive) | 70.1 µM (inactive) | > 100 µM (inactive) | 97.3 µM (inactive) | > 100 µM (inactive) | > 100 µM (inactive) | 81.7 µM (inactive) | > 100 µM (inactive) | > 100 µM (inactive) | – | > 100 µM (inactive) | > 100 µM (inactive) | 99.3 µM (inactive) | 60.7 µM (inactive)
13 | O=C(NCCCCCCNC(=O)n1cc(F)c(=O)[nH]c1=O)NCCCOCCOCCOCCOCCOCCOCCOCCOCCOCCOCCOCCOCCOCCOCCOCCOCCOCCOCCOCCOCCOCCCNC(=O)C(O)C(O)C(OC1OC(CO)C(O)C(O)C1O)C(O)CO (stereo not drawn) | 70 µM (inactive) | > 83.8 µM (inactive) | > 88.9 µM (inactive) | 9.16 µM (inactive) | 43.7 µM (inactive) | > 100 µM (inactive) | 52.4 µM (inactive) | 67.5 µM (inactive) | 6.07 µM (inactive) | 35.8 µM (inactive) | > 77.3 µM (inactive) | 29.6 µM (inactive) | 1.67 µM (inactive) | > 100 µM (inactive) | > 86.9 µM (inactive) | 56.5 µM (inactive) | 88.3 µM (inactive) | 64.7 µM (inactive) | > 89.7 µM (inactive) | 13.4 µM (inactive)
14 | Cc1ccc(S(=O)(=O)NC(=O)Nc2c(S(N)(=O)=O)cc(S(N)(=O)=O)c(Cl)c2Cl)cc1 | > 100 µM (inactive) | > 100 µM (inactive) | > 100 µM (inactive) | > 100 µM (inactive) | > 100 µM (inactive) | > 100 µM (inactive) | > 100 µM (inactive) | > 100 µM (inactive) | > 100 µM (inactive) | > 100 µM (inactive) | > 100 µM (inactive) | > 100 µM (inactive) | > 100 µM (inactive) | > 100 µM (inactive) | > 100 µM (inactive) | > 100 µM (inactive) | > 100 µM (inactive) | > 100 µM (inactive) | > 100 µM (inactive) | > 100 µM (inactive)
